Where “and” joins values, the source holds several entries; their conditions need not be identical. Identical values can stand only once. Like-named read-outs stand apart in the source and are kept apart here.
Legend:
Mnk1 = target: T1, Mnk1 (Homo sapiens, UniProt Q9BUB5); test: Protein level decrease by western blot, dose-response in CWR22Rv1 cells; format: cell-based; conditions: for times more effective (than Gal) in degrading Mnk1: from EC50 values
T1 construct: compound treatments (0–7.5 µM) of CWR22Rv1 cells for 72 h followed by western blot analysis of cells lysates; endogenous in cells; host or cells: CWR22Rv1
T1 sequence (Q9BUB5 whole entry): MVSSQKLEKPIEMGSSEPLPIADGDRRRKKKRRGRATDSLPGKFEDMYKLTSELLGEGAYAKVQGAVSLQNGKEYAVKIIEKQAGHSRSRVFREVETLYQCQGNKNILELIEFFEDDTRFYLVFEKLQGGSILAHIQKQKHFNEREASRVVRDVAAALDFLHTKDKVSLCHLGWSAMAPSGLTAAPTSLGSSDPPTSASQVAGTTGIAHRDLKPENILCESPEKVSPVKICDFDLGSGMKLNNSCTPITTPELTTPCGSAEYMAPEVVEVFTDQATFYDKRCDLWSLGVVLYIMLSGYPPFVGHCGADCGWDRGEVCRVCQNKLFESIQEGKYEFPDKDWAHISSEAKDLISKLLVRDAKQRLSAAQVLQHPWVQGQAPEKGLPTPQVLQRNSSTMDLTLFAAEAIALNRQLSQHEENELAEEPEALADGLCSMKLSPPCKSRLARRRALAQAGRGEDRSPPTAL
Text: Figure 4 Impact of Gal and NGGAs on AR/AR-V7 and Mnk1/2-eIF4E signaling pathways. (A) Western blot showing the effects of Gal and VNPT55 (55) on Mnk1, Mnk2, and peIF4E. (B) Western blot showing the effects of VNPP414 (414) and VNPP433-3β (433)) on Mnk1, Mnk2, and peIF4E. (C) Western blot showing dose-dependent effect of VNPP433-3β (433) on Mnk2, BMI-1, and peIF4E in CWR-R1 cells. (D) Western blot showing dose-dependent effect of Gal on Mnk1, Mnk2, BMI-1, and Snail1 in drug-resistant CWR-R1(10E) cells. (E) Western blot showing dose-dependent effect of VNPP433-3β (433) on Mnk1, Mnk2, BMI-1, and Snail1 in drug-resistant CWR-R1(10E) cells. (F) EC50 values (for fAR, ARV-7 and Mnk1) for compounds determined from dose–response curves upon compound treatments (0–7.5 µM) of CWR22Rv1 cells for 72 h followed by western blot analysis of cells lysates. Note: the numbers in parentheses in Figure 4B are concentrations of the agents in µM.
We further determined the effects of lead NGGAs on f-AR, AR-V7 and Mnk1 protein levels in CWR22Rv1 cells. Following agent treatments (0–7.5 µM), the EC50 values were determined from dose–response curves. […] Of note is the finding that although there was no dramatic difference between the agents in terms of their effects on f-AR suppression, there were significant differences in their relative potencies against AR-V7 and Mnk1.
Cells were lysed with radioimmunoprecipitation assay (RIPA) buffer (Sigma, St. Louis, MO, USA), supplemented with 1X protease inhibitors (Roche, Indianapolis, IN, USA), phosphatase inhibitors (Thermo Scientific, Waltham, MA, USA), 1 mmol/L EDTA and 1 mmol/L PMSF (Sigma). Western blot analyses were performed as in Kwegyir-Afful et al., 2015 [2].

CWR22Rv1 xenografts = test: Antitumor efficacy in castration-resistant CWR22Rv1 xenograft model; format: in vivo, male NOD SCID mice; conditions: 5 days/week, 16 days
Method: Following the in vitro studies and determination of the PK parameters, we then investigated the relative efficacy. Gal and the NGGAs in vivo using difficult-to-treat castration-resistant CWR22Rv1 xenografts. Given the enhanced IP and PO PK parameters of VNPP414 and VNPP433-3β over Gal, we decided to use lower doses of the new analogs compared to the previous Gal doses (200 mg/kg, IP/PO). Gal (200 mg/kg) served as positive control, while ENZ (25 mg/kg) administered PO was used as negative control. Male NOD SCID mice bearing CWR22Rv1 tumors were treated with vehicle, ENZ, Gal, VNPP414, and VNPP433-3β for 16 days as described in the Methods and Materials Section. […] In contrast, Gal and the NGGAs caused statistically significant tumor growth inhibition (TGI). […] It is notable that VNPP433-3β (at 7.5- and 15-fold lower molar doses) and VNPP414 (at 4-fold lower molar dose) are more efficacious than Gal. In general, no host toxicities were observed, as monitored by changes in animal body weight (Figure 7C).
Figure 7 Effects of Gal, NGGAs and ENZ in an in vivo castration-resistant prostate cancer model. (A) Mice bearing CWR22Rv1 xenografts (5 mice per group) were treated with vehicle, Gal (100 mg/kg/twice daily), VNPP414 (60 mg/kg, once daily), VNPP433-3β (15 or 30 mg/kg, once daily) and ENZ (25 mg.kg, once daily) 5 days per week for 16 days. Tumor volumes were measured twice a week and the tumors were collected. Tumor growth inhibition (TGI) values are indicated at the right of each growth curve, and the error bars are the SEM. Results are represented as means ± SEM. ^# p = ns (not significant vs. vehicle), ^$ p < 0.0272 vs. vehicle, * p < 0.0035 vs. vehicle, ** p < 0.0025 vs. vehicle and *** p < 0.0008 vs. vehicle. (B) Photographed tumors from each group. (C) Mean body weights of mice determined during the study. (D) Western blot analyses of tumor samples from each experimental group at day 16. […] It is left out because vehicle is a control, not a substance.
Male NOD SCID mice 5–6 weeks of age were obtained from University of Maryland School of Medicine Veterinary Resources (Baltimore, MD, USA. Mice were housed under complete aseptic conditions, fed autoclaved pellets and sterile water ad libitum. Following a week of acclimatization, approximately 5 × 10^6 CWR22Rv1 cells were inoculated one flank f mice. Tumor-bearing mice (tumor volume around ~100 mm^3) were randomized into 6 groups (5 mice in each group; compounds formulated in vehicle) and treated as follows: (i) vehicle control (40% β-cyclodextrin in saline, PO.), (ii) ENZ (25 mg/kg, PO, once daily), (iii) Gal (100mg/kg, PO, twice daily), (iv) VNPP414 (60 mg/kg, PO, once daily), (v) VNPP433-3β (15 mg/kg, PO, once daily), and (vi) VNPP433-3β (30 mg/kg, PO, once daily) for 5 days/week. Tumors were measured twice weekly with calipers and tumor volume was calculated by the formula: length × width^2 × 0.5 (mm^3). Animals were also weighed weekly and monitored for general health status and signs of possible toxicity due to treatments. Mice were sacrificed after the indicated periods of treatment and tumors excised. Tumors were divided and either flash frozen in liquid nitrogen or placed in 10% buffered formalin for western blot analysis.

[1] = 0–7.5 µM, 72 h, western blot, read-out: Mnk1 EC50

**Q.** Which results are given for `C[C@]12CC[C@H](O)CC1=CC[C@@H]1[C@@H]2CC[C@]2(C)C(n3cnc4ccccc43)=CC[C@@H]12` [Galeterone]?
**A.** DC50 (Mnk1; [1]): 5290 ± 90 nM; tumor growth inhibition (TGI) (CWR22Rv1 xenografts; 200 mg/kg (100 mg/kg PO twice daily), listed as Gal): 47% and 46.5%

**Q.** Which results are given for `C[C@]12CC[C@H](n3ccnc3)CC1=CCC1C2CC[C@]2(C)C(n3cnc4ccccc43)=CCC12` (stereo partly drawn) [VNPP433-3β]?
**A.** times more effective (than Gal) in degrading Mnk1 (Mnk1): 66.0 times; DC50 (Mnk1; read-out: Mnk1 EC50, 0–7.5 µM, 72 h, western blot): 80 nM; tumor growth inhibition (TGI) (CWR22Rv1 xenografts; 15 mg/kg PO once daily): 60.5%; tumor growth inhibition (TGI) (CWR22Rv1 xenografts; 30 mg/kg PO once daily): 84% and 83.7%

**Q.** Which DC50 (Mnk1; [1]) does the source give for `C[C@]12CC[C@H](OCc3ccncc3)CC1=CCC1C2CC[C@]2(C)C(n3cnc4ccccc43)=CCC12` (stereo partly drawn) [VNPP414] here?
**A.** The DC50 was 560 ± 70 nM.

**Q.** What about the “times more effective (than Gal) in degrading Mnk1” value (Mnk1) of the same compound?
**A.** Its value is 9.4 times.

**Q.** And the “tumor growth inhibition (TGI)” value (CWR22Rv1 xenografts; 60 mg/kg PO once daily)?
**A.** The value was 62.8%.

From PMC6895912 (Cancers, 2019)
